Laboratory results taken from patent publication US10681909B2, “Herbicidal triazoles” (FMC Corporation, priority 2014, dated 2020).

Key:
radish, wild = assay: Test D postemergence; format: in vivo, Raphanus raphanistrum; details: scale 0 to 100
Excerpt: (§1) Seeds of plant species selected from bluegrass (annual bluegrass, Poa annua), blackgrass (Alopecurus myosuroides), canarygrass (Phalaris minor), chickweed (common chickweed, Stellaria media), galium (catchweed bedstraw, Galium aparine), bromegrass, down (downy bromegrass, Bromus tectorum), Russian thistle (Salsola kali), field poppy (Papaver rhoeas), field violet (Viola arvensis), foxtail, green (green foxtail, Setaria viridis), deadnettle (henbit deadnettle, Lamium amplexicaule), ryegrass, Ital. (Italian ryegrass, Lolium multiflorum), kochia (Kochia scoparia), lambsquarters (Chenopodium album), oilseed rape (Brassica napus), pigweed (Amaranthus retroflexus), chamomile (scentless chamomile, Matricaria inodora), speedwell (bird's-eye speedwell, Veronica persica), barley, spring (spring barley, Hordeum vulgare), wheat, spring (spring wheat, Triticum aestivum), buckwheat, wild (wild buckwheat, Polygonum convolvulus), wild mustard (Sinapis arvensis), oat, wild (wild oat, Avena fatua), radish, wild (wild radish, Raphanus raphanistrum), […]), barley, winter (winter barley, Hordeum vulgare), and wheat, winter (winter wheat, Triticum aestivum) were planted into a silt loam soil and treated preemergence with test chemicals formulated in a non-phytotoxic solvent mixture which included a surfactant. At the same time, these species were planted in pots containing Sunshine Redi-Earth® planting medium comprising spaghnum peat moss, vermiculite, starter nutrients and dolomitic limestone and treated with postemergence applications of the test chemicals formulated in the same manner. Plants ranged in height from 2 to 18 cm (1- to 4-leaf stage). Treated plants and controls were maintained in a controlled growth environment for 14 to 21 d after which time all species were compared to controls and visually evaluated. […] A dash (-) response means no test result.

barnyardgrass = assay: Test C preemergence; format: in vivo, Echinochloa crus-galli; details: for Plant response rating (scale of 0 to 100 where 0 is no effect and 100 is complete control): Barnyardgrass, preemergence; for Barnyardgrass plant response rating (0 to 100): Preemergence, visual rating after 13 to 15 d
Excerpt: (§2) Seeds of plant species selected from blackgrass (Alopecurus myosuroides), ryegrass, Italian (Italian ryegrass, Lolium multiflorum), wheat (winter wheat, Triticum aestivum), galium (catchweed bedstraw, Galium aparine), corn (Zea mays), crabgrass, large (large crabgrass, Digitaria sanguinalis), foxtail, giant, (giant foxtail, Setaria faberii), johnsongrass (Sorghum halepense), lambsquarters (Chenopodium album), morningglory (Ipomoea coccinea), nutsedge, yellow (yellow nutsedge, Cyperus esculentus), pigweed (Amaranthus retroflexus), ragweed (common ragweed, Ambrosia elatior), soybean (Glycine max), barnyardgrass (Echinochloa crus-galli), oilseed rape (Brassica napus), waterhemp (common waterhemp, Amaranthus rudis), and velvetleaf (Abutilon theophrasti) were planted into a blend of loam soil and sand and treated preemergence with test chemicals formulated in a non-phytotoxic solvent mixture which included a surfactant. At the same time, plants selected from these crop and weed species and also chickweed (common chickweed, Stellaria media), oat, wild (wild oat, Avena fatua), and kochia (Kochia scoparia), were planted in pots containing Sunshine Redi-Earth® planting medium comprising spaghnum peat moss, vermiculite, starter nutrients and dolomitic limestone and treated with postemergence applications of test chemicals formulated in the same manner. Plants ranged in height from 2 to 18 cm (1- to 4-leaf stage) for postemergence treatments. […] A dash (-) response means no test result.

bluegrass = assay: Test D postemergence; format: in vivo, Poa annua; details: scale 0 to 100
Excerpt: as §1

foxtail, giant = assay: Test C preemergence; format: in vivo, Setaria faberii; details: for Plant response rating (scale of 0 to 100 where 0 is no effect and 100 is complete control): Foxtail, Giant, preemergence; for Foxtail, Giant plant response rating (0 to 100): Preemergence, visual rating after 13 to 15 d
Excerpt: as §2

canarygrass = assay: Test D postemergence; format: in vivo, Phalaris minor; details: scale 0 to 100
Excerpt: as §1

field violet = assay: Test D postemergence; format: in vivo, Viola arvensis; details: scale 0 to 100
Excerpt: as §1

deadnettle = assay: Test D preemergence; format: in vivo, Lamium amplexicaule; details: for Plant response rating (0 to 100), Deadnettle: 16 g ai/ha, 0 is no effect, 100 is complete control; for Plant response rating: Deadnettle: scale 0 to 100
Excerpt: as §1

wild mustard = assay: Test D postemergence; format: in vivo, Sinapis arvensis; details: scale 0 to 100
Excerpt: as §1

wheat (winter wheat) = assay: Test C preemergence; format: in vivo, Triticum aestivum; details: for Wheat plant response rating (0 to 100): Preemergence, visual rating after 13 to 15 d; for Plant response rating (scale of 0 to 100 where 0 is no effect and 100 is complete control): Wheat, preemergence, 250 g ai/ha
Excerpt: as §2

oilseed rape = assay: Test D postemergence; format: in vivo, Brassica napus; details: scale 0 to 100
Excerpt: as §1

buckwheat, wild = assay: Test D postemergence; format: in vivo, Polygonum convolvulus; details: scale 0 to 100
Excerpt: as §1

chickweed = assay: Test D preemergence; format: in vivo, Stellaria media; details: for Plant response rating (0 to 100), Chickweed: 16 g ai/ha, 0 is no effect, 100 is complete control; for Plant response rating: Chickweed: scale 0 to 100
Excerpt: as §1

soybean = assay: Test C preemergence; format: in vivo, Glycine max; details: for Soybean plant response rating (0 to 100): Preemergence, visual rating after 13 to 15 d; for Plant response rating (scale of 0 to 100 where 0 is no effect and 100 is complete control): Soybean, preemergence, 250 g ai/ha
Excerpt: as §2

field poppy = assay: Test D postemergence; format: in vivo, Papaver rhoeas; details: scale 0 to 100
Excerpt: as §1

chamomile = assay: Test D postemergence; format: in vivo, Matricaria inodora; details: scale 0 to 100
Excerpt: as §1

CCOc1nc(-c2ccc(C(F)(F)F)cc2)nn1Cc1ccnc(C(F)(F)F)c1 [Compound 35, 4-[[5-ethoxy-3-[4-(trifluoromethyl)phenyl]-1H-1,2,4-triazole-1-yl]methyl]-2-(trifluoromethyl)pyridine]
90: Barnyardgrass plant response rating (0 to 100) (barnyardgrass; 62 g ai/ha) | Plant response rating: Field Violet (field violet; 16 g ai/ha) | Plant response rating: Oilseed Rape (oilseed rape; 31 g ai/ha)
85: Plant response rating: Radish, Wild (radish, wild; 16 g ai/ha) | Barnyardgrass plant response rating (0 to 100) (barnyardgrass; 31 g ai/ha) | Plant response rating: Deadnettle (deadnettle; 31 g ai/ha) | Plant response rating: Chickweed (chickweed; 31 g ai/ha)
15: Soybean plant response rating (0 to 100) (soybean; 62 g ai/ha)
20: Soybean plant response rating (0 to 100) (soybean; 31 g ai/ha)
80: Plant response rating: Canarygrass (canarygrass; 125 g ai/ha) | Plant response rating (0 to 100), Deadnettle (deadnettle) | Plant response rating: Oilseed Rape (oilseed rape; 16 g ai/ha) | Plant response rating: Field Poppy (field poppy; 16 g ai/ha)
45: Plant response rating: Bluegrass (bluegrass; 16 g ai/ha)
5: Wheat plant response rating (0 to 100) (wheat (winter wheat); 31 g ai/ha) | Wheat plant response rating (0 to 100) (wheat (winter wheat); 62 g ai/ha)
35: Plant response rating (scale of 0 to 100 where 0 is no effect and 100 is complete control) (wheat (winter wheat))
95: Plant response rating: Bluegrass (bluegrass; 125 g ai/ha) | Plant response rating: Buckwheat, Wild (buckwheat, wild; 125 g ai/ha) | Plant response rating: Field Poppy (field poppy; 31 g ai/ha) | Plant response rating: Field Poppy (field poppy; 62 g ai/ha) | Plant response rating: Chamomile (chamomile; 62 g ai/ha)
65: Plant response rating: Canarygrass (canarygrass; 16 g ai/ha) | Plant response rating: Buckwheat, Wild (buckwheat, wild; 16 g ai/ha) | Plant response rating (scale of 0 to 100 where 0 is no effect and 100 is complete control) (soybean)
70: Plant response rating: Bluegrass (bluegrass; 31 g ai/ha) | Plant response rating: Canarygrass (canarygrass; 31 g ai/ha) | Plant response rating: Mustard, Wild (wild mustard; 16 g ai/ha) | Plant response rating: Buckwheat, Wild (buckwheat, wild; 31 g ai/ha) | Plant response rating: Buckwheat, Wild (buckwheat, wild; 62 g ai/ha) | Plant response rating (0 to 100), Chickweed (chickweed) | Plant response rating: Chamomile (chamomile; 16 g ai/ha)
98: Plant response rating (scale of 0 to 100 where 0 is no effect and 100 is complete control) (barnyardgrass; 125 g ai/ha) | Foxtail, Giant plant response rating (0 to 100) (foxtail, giant; 31 g ai/ha)
100: Plant response rating: Radish, Wild (radish, wild; 31 g ai/ha) | Plant response rating: Radish, Wild (radish, wild; 62 g ai/ha) | Plant response rating: Radish, Wild (radish, wild; 125 g ai/ha) | Plant response rating (scale of 0 to 100 where 0 is no effect and 100 is complete control) (barnyardgrass; 250 g ai/ha) | Plant response rating (scale of 0 to 100 where 0 is no effect and 100 is complete control) (foxtail, giant; 125 g ai/ha) | Plant response rating (scale of 0 to 100 where 0 is no effect and 100 is complete control) (foxtail, giant; 250 g ai/ha) | Foxtail, Giant plant response rating (0 to 100) (foxtail, giant; 62 g ai/ha) | Plant response rating: Field Violet (field violet; 31 g ai/ha) | Plant response rating: Field Violet (field violet; 62 g ai/ha) | Plant response rating: Field Violet (field violet; 125 g ai/ha) | Plant response rating: Deadnettle (deadnettle; 62 g ai/ha) | Plant response rating: Deadnettle (deadnettle; 125 g ai/ha) | Plant response rating: Mustard, Wild (wild mustard; 31 g ai/ha) | Plant response rating: Mustard, Wild (wild mustard; 62 g ai/ha) | Plant response rating: Mustard, Wild (wild mustard; 125 g ai/ha) | Plant response rating: Oilseed Rape (oilseed rape; 62 g ai/ha) | Plant response rating: Oilseed Rape (oilseed rape; 125 g ai/ha) | Plant response rating: Chickweed (chickweed; 62 g ai/ha) | Plant response rating: Chickweed (chickweed; 125 g ai/ha) | Plant response rating: Field Poppy (field poppy; 125 g ai/ha) | Plant response rating: Chamomile (chamomile; 125 g ai/ha)
75: Plant response rating: Bluegrass (bluegrass; 62 g ai/ha) | Plant response rating: Canarygrass (canarygrass; 62 g ai/ha) | Plant response rating: Chamomile (chamomile; 31 g ai/ha)

CCOc1nc(-c2ccccc2)nn1Cc1ccnc(C(F)(F)F)c1 [Compound 27]
65: Plant response rating: Bluegrass (bluegrass; 62 g ai/ha) | Plant response rating: Canarygrass (canarygrass; 31 g ai/ha) | Plant response rating: Buckwheat, Wild (buckwheat, wild; 16 g ai/ha)
80: Plant response rating: Field Violet (field violet; 62 g ai/ha) | Plant response rating: Field Violet (field violet; 125 g ai/ha) | Plant response rating (0 to 100), Deadnettle (deadnettle) | Plant response rating: Mustard, Wild (wild mustard; 16 g ai/ha) | Plant response rating: Oilseed Rape (oilseed rape; 16 g ai/ha) | Plant response rating: Buckwheat, Wild (buckwheat, wild; 31 g ai/ha) | Plant response rating: Field Poppy (field poppy; 31 g ai/ha)
60: Plant response rating: Bluegrass (bluegrass; 31 g ai/ha) | Plant response rating: Canarygrass (canarygrass; 125 g ai/ha) | Plant response rating (scale of 0 to 100 where 0 is no effect and 100 is complete control) (wheat (winter wheat))
25: Wheat plant response rating (0 to 100) (wheat (winter wheat); 62 g ai/ha)
20: Wheat plant response rating (0 to 100) (wheat (winter wheat); 31 g ai/ha) | Plant response rating: Chamomile (chamomile; 62 g ai/ha)
15: Plant response rating: Chamomile (chamomile; 16 g ai/ha) | Plant response rating: Chamomile (chamomile; 31 g ai/ha)
70: Barnyardgrass plant response rating (0 to 100) (barnyardgrass; 31 g ai/ha) | Plant response rating: Bluegrass (bluegrass; 125 g ai/ha) | Plant response rating: Canarygrass (canarygrass; 62 g ai/ha) | Plant response rating: Field Violet (field violet; 16 g ai/ha) | Plant response rating: Buckwheat, Wild (buckwheat, wild; 62 g ai/ha)
35: Plant response rating: Bluegrass (bluegrass; 16 g ai/ha) | Soybean plant response rating (0 to 100) (soybean; 31 g ai/ha) | Plant response rating: Chamomile (chamomile; 125 g ai/ha)
75: Plant response rating: Field Violet (field violet; 31 g ai/ha) | Plant response rating (scale of 0 to 100 where 0 is no effect and 100 is complete control) (soybean) | Plant response rating: Field Poppy (field poppy; 16 g ai/ha)
95: Plant response rating: Chickweed (chickweed; 31 g ai/ha)
50: Plant response rating: Canarygrass (canarygrass; 16 g ai/ha)
85: Plant response rating: Radish, Wild (radish, wild; 16 g ai/ha) | Plant response rating: Oilseed Rape (oilseed rape; 31 g ai/ha) | Plant response rating: Buckwheat, Wild (buckwheat, wild; 125 g ai/ha) | Plant response rating (0 to 100), Chickweed (chickweed) | Plant response rating: Field Poppy (field poppy; 62 g ai/ha)
90: Plant response rating: Radish, Wild (radish, wild; 31 g ai/ha) | Barnyardgrass plant response rating (0 to 100) (barnyardgrass; 62 g ai/ha) | Plant response rating: Oilseed Rape (oilseed rape; 62 g ai/ha)
100: Plant response rating: Radish, Wild (radish, wild; 62 g ai/ha) | Plant response rating: Radish, Wild (radish, wild; 125 g ai/ha) | Plant response rating (scale of 0 to 100 where 0 is no effect and 100 is complete control) (barnyardgrass; 125 g ai/ha) | Plant response rating (scale of 0 to 100 where 0 is no effect and 100 is complete control) (barnyardgrass; 250 g ai/ha) | Plant response rating (scale of 0 to 100 where 0 is no effect and 100 is complete control) (foxtail, giant; 125 g ai/ha) | Plant response rating (scale of 0 to 100 where 0 is no effect and 100 is complete control) (foxtail, giant; 250 g ai/ha) | Foxtail, Giant plant response rating (0 to 100) (foxtail, giant; 31 g ai/ha) | Foxtail, Giant plant response rating (0 to 100) (foxtail, giant; 62 g ai/ha) | Plant response rating: Deadnettle (deadnettle; 31 g ai/ha) | Plant response rating: Deadnettle (deadnettle; 62 g ai/ha) | Plant response rating: Deadnettle (deadnettle; 125 g ai/ha) | Plant response rating: Mustard, Wild (wild mustard; 31 g ai/ha) | Plant response rating: Mustard, Wild (wild mustard; 62 g ai/ha) | Plant response rating: Mustard, Wild (wild mustard; 125 g ai/ha) | Plant response rating: Oilseed Rape (oilseed rape; 125 g ai/ha) | Plant response rating: Chickweed (chickweed; 62 g ai/ha) | Plant response rating: Chickweed (chickweed; 125 g ai/ha) | Plant response rating: Field Poppy (field poppy; 125 g ai/ha)
40: Soybean plant response rating (0 to 100) (soybean; 62 g ai/ha)
